In brackets after ≈: the same amount, converted by molar mass. Entries after “also recorded” stand apart in the source; their conditions may differ. Read-outs that look alike come from different tables or passages of the source.
Assays:
in vitro = details: Chinook salmon
IPNV particles = type: cell-based, infectious pancreatic necrosis virus (IPNV); details: acivicin 25 and 70 μg/ml, 24 and 48 h.p.i.
IPNV [1] = assay: Survival of IPNV-infected Atlantic salmon fry treated with acivicin by immersion; type: in vivo
reovirus = details: Balb/c cells; Keast et al. (1992); cited from earlier work
[2] = Uninfected Atlantic salmon fry treated with acivicin (toxicity control); type: in vivo; details: uninfected fish treated with 14 μg/ml acivicin
Method: Starting nine days post-infection (day 9), surviving fish are divided into four groups of forty fish each and treated with 0, 7.0, 10.8, or 14.0 μg/ml of acivicin by immersion in a 2 hour daily bath containing […]. One group corresponded to untreated fish, and the other three groups corresponded to fish groups treated with different concentrations of acivicin. As a negative control, there were two groups of 40 healthy fish in each; one group corresponded to an uninfected fry administered 14 μg/ml of acivicin while the other group was not infected or administered acivicin. Daily treatment in acivicin continued through day 21 post-infection (day 21). The fish were followed for 36 days post-infection to detect and document mortality.

IPNV [3] = assay: Survival of naturally infected rainbow trout fry treated with acivicin; type: in vivo, rainbow trout (Onchorhynchus mykiss)
Method: FIG. 4 is a graph showing the effect of acivicin treatment on the survival of rainbow trout fry naturally infection with IPNV. The fish were followed for 30 days starting at day one of the acivicin treatments, to detect and document deaths. The data are presented in terms of percent survival: • ●---●: untreated naturally infected fish, positive control. • σ--σ: naturally infected fish treated with 9 μg/ml of Acivicin.
Acivicin was tested in vivo on thirty rainbow trout (Onchorhynchus mykiss). […] The fish were followed for 30 days following the first day of the acivicin treatments. Deaths were documented and presented in terms of percent survival. Results from methods assessing the effect of acivicin treatment on the survival of the trout fry naturally infected are shown in the graph at FIG. 4. Thirty days after the acivicin administration began, 90% of the trout fry had survived , while only 30% of the untreated control group had survived the same 30 day period. […] By contrast, in the untreated fish group, deaths continued during the first 25 days of the observation period.

Stability in solution = type: physicochemical
IPNV genomic RNA = type: cell-based, infectious pancreatic necrosis virus (IPNV)
IPNV [4] = assay: Modified viral plaque inhibition assay with pre-incubation of virus (virus cell entry); type: cell-based, infectious pancreatic necrosis virus (IPNV); details: for EC50: Infectious pancreatic necrosis virus
Method: Compounds derived from isoxazol are assayed for their ability to inhibit viral entry into the cell. To determine if acivicin blocks the entry of IPNV, a modified viral plaque inhibition assay was conducted. […] Control viral samples were not pre-incubated with acivicin. […] Overnight incubation of the virus in acivicin increased the ability of the isoxazol compound to inhibit viral plaques by 38 percent.

IPNV [5] = details: at 100 to 300 μg/ml; cited from earlier work
IPNV [6] = details: cited from earlier work
IPNV strain VR-299 [7] = details: cited from earlier work
IPNV strain VR-299 [8] = assay: Virus plaque inhibition assay; type: cell-based; details: Infectious pancreatic necrosis virus, CHSE-214, 72 h, read-out: EC50, effective antiviral concentration required to inhibit IPNV plaque formation by 50%
IPNV [9] = assay: Survival of IPNV-infected Atlantic salmon fry treated with neomycin by immersion; details: neomycin 10, 40 and 80 ppm, 1 hour daily bath through day 23
[10] = acivicin 25 and 70 μg/ml, 24 and 48 h.p.i.

**Q.** With Nc1ncnc2c1ncn2CC(O)C(=O)O (centres unmarked) [AHPA, 3-adenine-9-yl-2-hydroxypropanoic acid] as the compound, how does the CC50 at 3 days (in vitro) read?
**A.** 75 µg/mL (≈ 336 µM)

**Q.** For N[C@H](C(=O)O)[C@@H]1CC(Cl)=NO1 [Acivicin, L (alpha S, 5S)-alpha-amino-3-chloro-4.5-dihydro-5-isoxazolacetic acid], which “Effect on IPNV particle formation” value (IPNV particles) is on record?
**A.** inhibits the formation of IPNV viral particles

**Q.** And the “Deaths after acivicin treatments were terminated” value (IPNV [1]; days 21-36, all three treated groups, untreated infected deaths reached 54 percent)?
**A.** no deaths observed

**Q.** And the “Day post-treatment by which deaths stopped completely” value (IPNV [1]; each of the treated groups, treatment began day 9 post-infection)?
**A.** ≤ 10 day post-treatment

**Q.** And the “Mortality rate (accumulated deaths)” value (IPNV [1]; infected fish, 7.0 μg/ml acivicin, 2 hour daily bath from day 9 to 21 post-infection, untreated infected 30%)?
**A.** 30%

**Q.** What about the Survival (IPNV [1]; infected fish, 10.5 μg/ml acivicin) of the same compound?
**A.** 92%

**Q.** And the Accumulated deaths (IPNV [1]; infected fish, 10.5 μg/ml acivicin, 2 hour daily bath from day 9 to 21 post-infection)?
**A.** 8%

**Q.** What about the Survival (IPNV [1]; infected fish, 14 μg/ml acivicin) of the same compound?
**A.** 89%

**Q.** And the Mortality (IPNV [1]; infected fish, 14 μg/ml acivicin, 2 hour daily bath from day 9 to 21 post-infection)?
**A.** 11%

**Q.** And the “Concentration inhibiting reovirus replication” value (reovirus)?
**A.** 0.1 µg/mL

**Q.** And the Toxicity in fish [2]?
**A.** not toxic in fish

**Q.** And the “Day of treatment by which all deaths occurred” value (IPNV [3]; 9 μg/ml acivicin, 15 day protocol, untreated deaths continued 25 days)?
**A.** ≤ 12 days

**Q.** And the “Survival thirty days after administration began” value (IPNV [3]; fry 1.0±0.4 g, 9 μg/ml acivicin, daily bath of two hours, 15 days, untreated control 30%)?
**A.** 90%

**Q.** And the Survival (IPNV [3]; fry of approximately 0.8 g, treated 12 days with 9 μg/ml acivicin)?
**A.** 98%

**Q.** And the “Effect on IPNV polypeptide synthesis” value (IPNV polypeptides; [10])?
**A.** did not inhibit

**Q.** What about the CC50 (in vitro) of the same compound?
**A.** > 100 µg/mL

**Q.** What about the Stability in solution (Stability in solution) of the same compound?
**A.** stable in solution

**Q.** And the “Effect on IPNV genomic RNA synthesis” value (IPNV genomic RNA; [10])?
**A.** did not inhibit

**Q.** What about the “EC50, virus samples pre-incubated 2 hours, versus not pre-incubated” value (IPNV [4]; 2 hours pre-incubation) of the same compound?
**A.** not significantly different

**Q.** And the EC50 (IPNV [4]; no pre-incubation, read-out: EC50, virus samples without pre-incubation)?
**A.** 4 µg/mL (≈ 22.4 µM)

**Q.** What about the EC50 (IPNV [4]; pre-incubation with 1 to 6 μg/ml acivicin overnight, read-out: EC50, virus samples pre-incubated overnight with acivicin) of the same compound?
**A.** 2.5 µg/mL

**Q.** For Nc1ncnc2c1ncn2C[C@H](O)CO [DHPA, (S)-9-(2.3-dihydroxypropyl) adenine], which “Cytotoxicity in RTG-2 cells” value (IPNV [5]) is on record?
**A.** without presenting cytotoxicity

**Q.** What does the source list for C#Cc1c(C(N)=O)ncn1[C@@H]1O[C@H](CO)[C@@H](O)[C@H]1O [EICAR, 5-ethynyl-1-β-ribofuranosylimidazole-carboxamide]?
**A.** Deaths among experimentally IPNV-infected fry (IPNV [6]; rainbow trout and Coho salmon fry, given first day after infection, Moya et al. (2000)): fewer deaths occurred among the infected fry; EC50 for IPNV (IPNV strain VR-299 [7]; Jashés et al., Antiviral Res. 29:309 (1996)): 0.01 µg/mL

**Q.** Which CC50 at 3 days (in vitro) does the source give for COc1c(C)c2c(c(O)c1C/C=C(\C)CCC(=O)O)C(=O)OC2 [Myconhenolic Acid, 6-(4-hydroxy-6-methoxy-7-methyl-3-oxo-5-phthalanyl)-4-methyl-4-hexenoic acid] here?
**A.** > 50 µg/mL

**Q.** And the EC50 (IPNV strain VR-299 [8])?
**A.** 0.5 µg/mL (≈ 1.56 µM)

**Q.** For NC(=O)c1ncn([C@@H]2O[C@H](CO)[C@@H](O)[C@H]2O)n1 [Ribavirin], which “Efficacy against IPNV in vivo” value (IPNV [6]; Migus et al. (1980), Savan et al. (1980)) is on record?
**A.** no efficacy in vivo

**Q.** And the “Inhibition of IPNV replication in vitro” value (IPNV strain VR-299 [7]; Migus et al. (1980))?
**A.** inhibit IPNV replication in vitro; also recorded: efficiently inhibits IPNV replication in vitro

**Q.** With neomycin as the compound, how does the “Mortality outbreak, treatment from day thirteen post-infection” value (IPNV [9]) read?
**A.** stop the mortality outbreak immediately

**Q.** What about the “Mortality outbreak, treatment from day thirteen post-infection” value (IPNV [9]; listed as neomycin) of the same compound?
**A.** stopped dying immediately

**Q.** What about the “Effect on IPNV polypeptide synthesis” value (IPNV polypeptides; neomycin 4 mg/ml added 1, 3, 5, 7 h.p.i., 24 h.p.i.) of the same compound?
**A.** does not inhibit IPNV polypeptide synthesis

**Q.** And the “Effect on IPNV genomic RNA synthesis” value (IPNV genomic RNA; neomycin 4 mg/ml added 1, 3, 5, 7 h.p.i., harvest 24 h.p.i.)?
**A.** inhibited the IPNV RNA synthesis
